Laboratory results from publication PMC6149824, “Design and Synthesis of New Benzothiazole Compounds as Selective hMAO-B Inhibitors” (Molecules : A Journal of Synthetic Chemistry and Natural …, 2017).
Entries after “also recorded” stand apart in the source; their conditions may differ.

Assays:
hMAO-B [1] = target: T1, hMAO-B (Homo sapiens, UniProt P27338); test: enzyme kinetic studies (Lineweaver-Burk) of hMAO-B inhibition; assay type: biochemical
T1 sequence (P27338 1-520): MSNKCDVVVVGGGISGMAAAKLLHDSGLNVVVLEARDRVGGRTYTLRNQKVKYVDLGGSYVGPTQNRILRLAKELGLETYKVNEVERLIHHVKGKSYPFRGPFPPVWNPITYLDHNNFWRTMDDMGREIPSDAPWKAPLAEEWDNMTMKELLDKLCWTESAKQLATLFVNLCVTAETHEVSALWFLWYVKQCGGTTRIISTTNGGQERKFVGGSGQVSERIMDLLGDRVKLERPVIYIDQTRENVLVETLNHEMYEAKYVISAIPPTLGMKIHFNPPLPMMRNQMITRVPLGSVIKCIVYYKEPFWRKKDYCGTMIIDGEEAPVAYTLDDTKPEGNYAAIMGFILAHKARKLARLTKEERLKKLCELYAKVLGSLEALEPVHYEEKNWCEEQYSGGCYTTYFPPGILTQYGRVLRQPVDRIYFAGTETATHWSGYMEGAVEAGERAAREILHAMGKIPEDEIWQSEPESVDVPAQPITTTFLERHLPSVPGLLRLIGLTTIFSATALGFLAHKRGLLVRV
Protocol: The mechanism of hMAO-B inhibition was investigated by enzyme kinetic studies. Lineweaver-Burk graphs were used to estimate the type of inhibition. […] The velocity measurements were performed by using different substrate concentrations (20 µM–0.625 µM). The Ki (intercept on the x-axis) value of compound 3e was determined from the secondary plot of the 1/V versus varying concentrations.
The Lineweaver-Burk graphics present the inhibition type as a mixed-type, competitive, uncompetitive, or non-competitive. In the mix-typed inhibition, the control and inhibitor lines cross neither x- nor y-axis at the same point. […] There is no crosses between the lines in uncompetitive-type inhibition. […] Thus, it can be declared that the mechanism of hMAO-B inhibition of 3e is non-competitive, clarifying that the inhibitor can bind to either free enzyme or enzyme–substrate complex.
The same materials were used in the MAO inhibition assay. […] The solutions of inhibitor (20 μL/well) and enzyme added to the fine black-bottom 96-well microtiter plate and then the mixture was incubated at 37 °C for 30 min. After incubation period, the working solution, including various concentrations (20, 10, 5, 2.5, 1.25, and 0.625 μM) of tyramine (100 μL/well), was added. The increase of the fluorescence (Ex/Em = 535/587 nm) was recorded for 30 min. A parallel experiment was performed without using an inhibitor. All processes were assayed in quadruplicate. Lineweaver-Burk plots were obtained by using Microsoft Office Excel 2013 to analyze the inhibition type. The slopes of the Lineweaver-Burk plots were replotted versus the inhibitor concentration, and the Ki values were determined from the x-axis intercept as −Ki.

[2] = cytotoxicity test (MTT) on NIH/3T3 cells; assay type: cell-based, mouse; settings: mouse, NIH/3T3 mouse embryonic fibroblast cells (ATCC CRL-1658); MTT assay, 1000 µM to 0.316 µM; read-out: IC50 (cytotoxic activity against NIH/3T3 cell line)
Protocol: (§1) The healthy NIH/3T3 mouse embryonic fibroblast cell line (ATCC CRL1658), proposed by ISO (10993-5, 2009) for preliminary cytotoxicity screening of drug candidates, was used to evaluate the cytotoxicity of compound 3e. The IC50 value of the compound 3e is represented in Table 3.
(§2) NIH/3T3 mouse embryonic fibroblast cell line (ATCC® CRL-1658™, London, UK) was used in the cytotoxicity test and, initially, NIH/3T3 cells were incubated in Dulbecco’s Modified Eagle’s Medium (DMEM). NIH/3T3 cells were added to 96-well culture plates (10,000 cells/well). Synthesized compounds and reference agents were added to the 96-well culture plates at various concentrations ranging from 1000 µM to 0.316 µM. MTT assay was performed as previously described. Dose-response curves were plotted against compound concentrations applied to determine IC50 values.

[3] = system: NIH/3T3 mouse embryonic fibroblast cell line; test: cytotoxicity test (MTT) on NIH/3T3 cells; assay type: cell-based
Protocol: as §1, §2

hMAO-B [4] = target: T1, hMAO-B; test: in vitro fluorometric hMAO-B inhibition assay (Amplex Red); assay type: biochemical
Protocol: The method was performed in two steps, as previously described.
An enzyme inhibition assay was performed according to our recent study. […] After the incubation period, the reaction was started by adding a working solution (100 μL/well) ([…] Amplex Red reagent, 1 U/mL horseradish peroxidase and 1 mM p-tyramine) and all pipetting processes were performed using a Biotek Precision XS robotic system (BioTek Instruments, Winooski, VT, USA).
Control experiments were carried out simultaneously by replacing the inhibitor solution with 2% DMSO (20 μL). In order to check the probable inhibitory effect of inhibitors on horseradish peroxidase, a parallel reading was achieved by replacing enzyme solutions with 3% H2O2 solution (20 mM 100 μL/well). In addition, the probable capacity of the inhibitors to modify the fluorescence generated in the reaction mixture due to non-enzymatic inhibition was determined by mixing inhibitor and working solutions.
The specific fluorescence emission (used to obtain the final results) was calculated after subtraction of the background activity, which was determined from vials containing all components except the hMAO isoforms, which were replaced by phosphate buffer (100 μL/well). Blank, control and all concentrations of inhibitors were analyzed in quadruplicate and inhibition percent was calculated by using following equation: % Inhibition=(FCt2−FCt1)−(FIt2−FIt1)/FCt2−FCt1×100 where FCt2 is the fluorescence of a control well measured at t2 time; FCt1 is the fluorescence of a control well measured at t1 time; FIt2 is the fluorescence of an inhibitor well measured at t2 time; and FIt1 is the fluorescence of an inhibitor well measured at t1 time.
The IC50 values were calculated from a dose-response curve obtained by plotting the percentage inhibition versus the log concentration with the use of GraphPad PRISM software (version 5.0, GraphPad Software Inc., La Jolla, CA, USA).

mechanism (type) of hMAO-B inhibition (hMAO-B [1]; Lineweaver-Burk plots): non-competitive
Vmax (hMAO-B [1]; inhibitor concentration 2 × IC50): 158.730 nmol/min/mg protein
Vmax (hMAO-B [1]; inhibitor concentration IC50): 212.766 nmol/min/mg protein
Vmax (hMAO-B [1]; inhibitor concentration IC50/2): 263.158 nmol/min/mg protein
Ki (hMAO-B [1]; secondary plot, x-axis intercept, substrate tyramine, read-out: Ki (steady-state inhibition constant) for the inhibition of hMAO-B): 61 nM
inhibition at 1000 µM (hMAO-B [4]; 10^−3 M, read-out: MAO B Inhibition %): 87.3%
inhibition against hMAO-B (first screening step) (hMAO-B [4]; 10^−3 and 10^−4 M): more than 50%
inhibition at 100 µM (hMAO-B [4]; 10^−4 M, read-out: MAO B Inhibition %): 83.5%
IC50 (hMAO-B [4]; concentrations of 10^−5–10^−9 M, mean ± SD, read-out: MAO B IC50): 60 ± 2 nM
Structure (SMILES): COc1ccc2sc(SCC(=O)NN=Cc3ccc([N+](=O)[O-])s3)nc2c1 [Compound 3e, 2-((5-Methoxybenzothiazol-2-yl)thio)-N′-((5-nitrothiophen-2-yl)methylene)acetohydrazide]
IC50 [2]: 19000 ± 1030 nM
fold IC50 against NIH/3T3 higher than IC50 against hMAO-B ([3]; IC50 NIH/3T3 vs IC50 hMAO-B): ca. 300 fold
cytotoxicity (in words) ([3]; NIH/3T3, at its effective concentration): not cytotoxic; also recorded: non-cytotoxic
